This is an account of results in patent US20250243190A1, “NEW DEUTERATED RORGAMMA/RORGAMMAT INVERSE AGONISTS” (IMMUNIC AG, priority 2022, published 2025).

Bounds are passed on as bounds.

One data set has as its target T1, RORγt (Homo sapiens, UniProt P51449).
T1 sequence (P51449 269-508 limits assumed): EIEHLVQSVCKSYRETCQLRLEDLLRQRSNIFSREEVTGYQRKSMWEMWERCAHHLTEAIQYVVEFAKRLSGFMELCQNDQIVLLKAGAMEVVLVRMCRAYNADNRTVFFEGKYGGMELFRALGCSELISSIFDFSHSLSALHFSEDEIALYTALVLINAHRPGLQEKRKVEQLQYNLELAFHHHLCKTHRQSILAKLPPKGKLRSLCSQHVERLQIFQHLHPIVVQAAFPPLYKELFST
Kind of data set: Indigo Biosciences Human RAR-related Orphan Receptor, Gamma Reporter Assay (in vitro inhibition of RORγt). Type of data set: cell-based. The following applies: RORγt reporter cells, luciferase readout, 22-24 h incubation; read-out: IC50 range. The method, then: The in vitro inhibition of RORγt was measured using Indigo Biosciences Human RAR-related Orphan Receptor, Gamma Reporter Assay System (Product #IB304001-32) as described in the technical manual. In brief, 200 μL of Reporter Cells is dispensed into wells of the assay plate and preincubated for 4-6 h. Following the pre-incubation period, culture media are discarded and 200 µL/well of the prepared 1×-concentration treatment media are added. Following 22-24 h incubation, treatment media are discarded and Luciferase Detection Reagent is added. The intensity of light emission (in units of ‘Relative Light Units’; RLU) from each assay well is quantified using a plate-reading luminometer. Average values of RLU were determined for each treatment concentration. Non-linear regression analyses were performed and IC50 values determined using GraphPad Prism software. Provided inverse-agonists ursolic acid served as positive control.
In general terms: A reporter such as luciferase makes a cellular process visible.

Data set [1] in a line: Microsomal stability, rat liver microsomes. The following applies: 60 min. The procedure:
(§1) The conversion to the metabolite was monitored by HPLC-MS/MS. Verapamil served as positive control.
(§2) The metabolism was monitored by HPLC-MS/MS. Verapamil served as positive control. The intrinsic clearance was calculated from the measured remaining compound values.
On the technique in general: Microsomes from liver hold many membrane-bound enzymes, among them those of drug oxidation.

Data set [2] is described as follows: Microsomal stability, mouse liver microsomes. The following applies: 60 min. The procedure: as §1
The metabolism was monitored by HPLC-MS/MS.
Verapamil served as positive control. The intrinsic clearance was calculated from the measured remaining compound values.

Data set [3] is described as follows: Microsomal stability, human liver microsomes. The procedure:
as §1, §2, §2

The nature of data set [4]: Rat pharmacokinetics, oral or intravenous cassette dosing. In kind it is in vivo, rats (strain Wistar RjHAN). The following applies: for AUC(0-inf) / AUC(0-t) / C0 / CL/F / Cmax / bioavailability: Wistar RjHAN, rat, plasma; for bioavailability: po 5 mg/kg vs iv 1 mg/kg. The procedure: The pharmacokinetics of the deuterated compounds of the present invention was evaluated in 3 male and 3 female rats (strain Wistar RjHAN, 7-8 week old) after oral or intravenous cassette dosing to asses the oral bioavailability. Rats are provided with a catheter in the jugular vein (2-3 days prior to blood sampling). At each designated time point (1, 2, 4, 8 and 24 h after dosing), 100 μL blood were collected into Li-heparin tubes, stored on ice until centrifugation (10 minutes at 3000 g, 4° C.) and plasma was prepared within 45 min after collection, frozen at −20° C. and stored at this temperature until processed for LC-MS analysis.

Data set [5] is described as follows: Mouse pharmacokinetics, oral or intravenous cassette dosing. In kind it is in vivo, mice (C57BL/6J). As to conditions: C57BL/6J, whole blood; for bioavailability: 5 mg/kg oral vs 1 mg/kg intravenous, read-out: F (bioavailability); for AUC(0-t): read-out: AUC0-24 h. The method, then: The pharmacokinetics of the compounds of the present invention was evaluated in 3 male and 3 female mice (C57BL/6J, 8 week old) after oral or intravenous cassette dosing to assess the oral bioavailability. Dose was 5 mg/kg (oral) and 1 mg/kg (intravenous), application volume was 5 mL/kg (oral) and 0.5 mL/kg (intravenous), vehicle was 5% solutol, 95% NaCl solution (at 0.9% saline concentration) for oral and 5% solutol, 5% Ethanol, 90% NaCl solution (at 0.9% saline concentration) for intravenous. At each designated time point (0.25, 0.5, 1, 2, 4, 8 and 24 h after dosing), 20 μL whole blood were collected from the tail vein into Li-heparin tubes, frozen on dry ice within 1-2 minutes of sampling and stored at −20° C. until processed for LC-MS analysis. The obtained data is as follows:
The pharmacokinetics of additional compounds of the present invention was evaluated in 3 female mice (C57BL/6J, 8 week old) after oral cassette dosing. Dose was 5 mg/kg, application volume was 5 mL/kg, vehicle was 5% solutol, 95% NaCl solution (at 0.9% saline concentration). At each designated time point (0.5, 1, 2, 4, 8 and 24 h after dosing), 20 μL whole blood were collected from the tail vein into Li-heparin tubes, frozen on dry ice within 1-2 minutes of sampling and stored at −20° C. until processed for LC-MS analysis. The obtained data is as follows:
The pharmacokinetics of additional compounds of the present invention was evaluated in 3 female mice (C57BL/6J, 8 week old) after oral cassette dosing. Dose was 5 mg/kg, application volume was 5 mL/kg, vehicle was 5% solutol, 95% NaCl solution (at 0.9% saline concentration). At each designated time point (0.25, 0.5, 1, 2, 4 and 8 h after dosing), 20 μL whole blood were collected from the tail vein into Li-heparin tubes, frozen on dry ice within 1-2 minutes of sampling and stored at −20° C. until processed for LC-MS analysis.

Another data set concerns SARS-CoV-2. The experiment in a line: Antiviral activity on SARS-CoV-2, viral replication (YFP) assay. In kind it is cell-based. The following applies: Severe acute respiratory syndrome coronavirus 2, read-out: EC50 range. The text has this:
(§3) The assay for viral replication (YFP) and the cell viability assay has been described in general in Pathogens 2021; 10:1076 and applied to compounds of the present invention furnished the following results: […]

Data set [6] is described as follows: Cell viability assay accompanying the SARS-CoV-2 assay. In kind it is cell-based. As to conditions: cell viability assay of the SARS-CoV-2 test.
From the text: as §3

Data set [7] has as its system respiratory syncytial virus (RSV, A2 strain expressing eGFP, Long strain or RSV-B). Kind of data set: Antiviral activity on RSV in HEp-2 cells. Type of data set: cell-based. As to conditions: human respiratory syncytial virus, HEp-2, 45 h, read-out: IC50 (50% inhibitory concentration). The procedure:
One day before infection, 20,000 HEp-2 cells per well were seeded in a 96-well plate. Example 100 or DMSO vehicle controls were applied on cell monolayers at indicated concentrations and infected immediately after treatment with respiratory syncytial virus (RSV, A2 strain expressing eGFP, Long strain or RSV-B) at MOI 0.001. Cells were incubated for 45 h at 37° C. and 5% CO2. RSV infection was quantified either by counting green fluorescent infected cells using CTL-Immunospot reader or by ICC staining using RSV-targeting antibody. Shown as mean values of triplicate wells normalized to the corresponding vehicle-treated controls ±SD.

Another data set has as its system influenza A. Kind of data set: Antiviral activity on influenza A. As to conditions: Influenza A virus; read-out: EC50 range. Type of data set: cell-based. The text has this: (§4) The assay for measuring influenza A has been described in general in Antimicrob. Agents Chemother. 2015; 59:2062 and applied to compounds of the present invention furnished the following representative results: […]

Data set [8] can be described thus: CC50 accompanying the influenza A assay. Type of data set: cell-based. The following applies: influenza A test.
From the text: as §4

Where [9] appears, read: female mice, 5 mg/kg oral, cassette.
Setting [10] is: male mice, 5 mg/kg oral, cassette.
[11] abbreviates: 3 female mice, 5 mg/kg oral cassette, sampling 0.5-24 h.

One may read the microsomal CLint as the capacity of the preparation to metabolise the compound, expressed as a volume cleared per time. Read a low microsomal CLint as greater metabolic stability. The AUC(0-inf) is total exposure, with the tail of the curve extrapolated. The term CL/F denotes clearance divided by bioavailability, as obtained after extravascular dosing. In general, Cmax refers to the maximum level reached in the sampled fluid or tissue. The bioavailability is dose-corrected exposure relative to a reference, in per cent. One may read the half-life as the time in which the quantity being followed falls by half. Broadly, the EC50 is the concentration needed to bring the measured effect to its halfway point. Broadly, the CC50 is the concentration that lowers cell viability or growth by half. With `[2H]C([2H])(CC(C)(C)O)n1ncc(-c2onc(-c3c(F)cccc3Cl)c2-c2ncccn2)c1C(F)(F)F` [Example 3, 4-(4-(3-(2-Chloro-6-fluorophenyl)-4-(pyrimidin-2-yl)isoxazol-5-yl)-5-(trifluoromethyl)-1H-pyrazol-1-yl)-2-methylbutan-4,4-d2-2-ol], the IC50 on RORγt is 10 to 100 nM. For the same molecule, the microsomal CLint was determined as 31.4 µL/min/mg in [1] (rat liver microsomes batch 1910100 (Xenotech)); 29.7 µL/min/mg in data set [1] (rat liver microsomes batch 4085002 (Corning)); 30.2 µL/min/mg in data set [1] (rat liver microsomes batch 9078001 (Corning)); 43.9 µL/min/mg in data set [2] (female, mouse, mouse liver microsomes batch 4338001 female (Corning)); 50.3 µL/min/mg in data set [2] (female, mouse, mouse liver microsomes batch MDO female (Bioreclamation IVT)); 24 µL/min/mg in data set [2] (male, mouse, mouse liver microsomes batch 0010003 male (Corning)). Also, the intrinsic clearance (microsomal CLint) was found to be 2.2 µL/min/mg in [3] (both) and 1.1 µL/min/mg in [3] (male). Further, the AUC(0-inf) in data set [4] (female rats, iv 1 mg/kg) was 3780 ng·h/mL; in [4] (female rats, po 5 mg/kg) it was 2950 ng·h/mL; in data set [4] (male rats, iv 1 mg/kg), 3970 ng·h/mL; in data set [4] (male rats, po 5 mg/kg), 692 ng·h/mL. Further, the AUC(0-t) in [4] (female rats, iv 1 mg/kg) worked out at 3660 ng·h/mL; in data set [4] (female rats, po 5 mg/kg), 2930 ng·h/mL; in data set [4] (male rats, iv 1 mg/kg), 3720 ng·h/mL; in data set [4] (male rats, po 5 mg/kg), 649 ng·h/mL; in data set [5] (setting [9]), 771 ng·h/mL; in [5] (setting [10]), 1040 ng·h/mL. The C0 came out at 2090 ng/mL in [4] (female rats, iv 1 mg/kg) and 2460 ng/mL in data set [4] (male rats, iv 1 mg/kg). The CL/F in [4] (female rats, po 5 mg/kg) is 132 mL/min/kg; in data set [4] (male rats, po 5 mg/kg), 343 mL/min/kg. Also, the Cmax in data set [4] (female rats, po 5 mg/kg) amounted to 629 ng/mL; in [4] (male rats, po 5 mg/kg), 215 ng/mL; in data set [5] (female mice, 5 mg/kg oral, cassette, sampling to 24 h) it was 301 ng/mL; in data set [5] (male mice, 5 mg/kg oral, cassette, sampling to 24 h), 392 ng/mL. The bioavailability worked out at 16% in data set [4] (female rats), 3.5% in data set [4] (male rats), 34% in data set [5] (female mice) and 93% in data set [5] (male mice). Moreover, the t1/2z was 6.6 h in data set [4] (female rats, iv 1 mg/kg); 3.2 h in data set [4] (female rats, po 5 mg/kg); 7.2 h in [4] (male rats, iv 1 mg/kg); 1.9 h in data set [4] (male rats, po 5 mg/kg). Besides, the half-life was found to be 1.5 h in data set [5] (setting [9]) and 2.3 h in data set [5] (setting [10]). Moreover, in the data set on SARS-CoV-2, the EC50 was less than 100 nM. In [6], this molecule gave a CC50 of 22000 nM.

Take `[2H]C([2H])([2H])OC(=O)c1c(-c2c(F)cccc2Cl)noc1-c1cnn(-c2cccc(Cl)c2)c1C(F)(F)F` [Example 100, Methyl-d3 3-(2-chloro-6-fluorophenyl)-5-(1-(3-chlorophenyl)-5-(trifluoromethyl)-1H-pyrazol-4-yl)isoxazole-4-carboxylate]: the values for the IC50 (on RORγt; in data set [7]) were less than 10 nM and less than 50 nM, respectively. In [2] (male, CD-1, mouse, mouse liver microsomes 10003 CD-1, male (Corning), Example 100 experiment), the microsomal CLint came to 24.4 µL/min/mg. The molecule also registered a Cmax in [5] (setting [11]) of 50.5 ng/mL. In data set [5] (setting [11]), the half-life is 6.4 h. Further, the AUC(0-t) in [5] (setting [11]) stood at 201 ng·h/mL. The 50% effective concentration (EC50) in the data set on SARS-CoV-2 and in the data set with influenza A was less than 100 nM in each case. For the same molecule, the CC50 in [6] was 50000 nM; in data set [8], 82000 nM.

Consider `[2H]C([2H])(OC1CC1)c1c(-c2c(F)cccc2Cl)noc1-c1cnn(-c2cccc(Cl)c2)c1C(F)(F)F` [Example 102, 3-(2-Chloro-6-fluorophenyl)-5-(1-(3-chlorophenyl)-5-(trifluoromethyl)-1H-pyrazol-4-yl)-4-(cyclopropoxymethyl-d2)isoxazole], for which, at RORγt, the IC50 fell in the range of 10 to 100 nM. Moreover, the microsomal CLint in data set [1] (rat liver microsomes 9078001 (Corning), Example 102 experiment) was found to be 29.4 µL/min/mg; in [3] (both) it was 6.7 µL/min/mg. In [5] (setting [11]), this molecule had a Cmax of 272 ng/mL. The molecule also showed a half-life in data set [5] (setting [11]) of 7.2 h. The AUC(0-t) in data set [5] (setting [11]) was 970 ng·h/mL. Also, the half-maximal effective concentration (EC50) is less than 100 nM with SARS-CoV-2 and 100 to 1000 nM in the data set with influenza A. In addition, the CC50 is 17000 nM in data set [6] and more than 100000 nM in [8].
